Laboratory results from patent publication US20080009418A1, “Selective Inhibitors” (Alchemia LTD., priority 2004, published 2008).

Legend:
[1] = target: T1, Human melanin-concentrating hormone (MCH1) (Homo sapiens, UniProt Q99705); test: Radioligand binding, human melanin-concentrating hormone MCH1 membranes, FlashPlate, [125I]-S36057; settings: compound at 10 μM; [125I]-S36057
T1 construct: purchased Perkin Elmer Biosignal
Procedure, shortened: (§1)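 Cloned human receptor membranes were coated onto FlashPlate wells and incubated with radioligand and compound (added from a 0.5 mM DMSO daughter plate) for 1 hour at room temperature in the dark. Scintillation counting gave percent inhibition, with DMSO defining total and reference ligand defining non-specific binding.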

Human melanocortin (MC5) = target: T2, Human melanocortin (MC5) (Homo sapiens, UniProt P33032); test: Radioligand binding, human melanocortin MC5 membranes, FlashPlate, [125I]-NDP-αMSH; settings: compound at 10 μM; [125I]-NDP-αMSH
T2 construct: purchased Perkin Elmer Biosignal
Procedure, shortened: as §1

[2] = target: T3, Human neuropeptide Y (NPY-Y1) (Homo sapiens, UniProt P25929); test: Radioligand binding, human neuropeptide Y NPY-Y1 membranes, FlashPlate, [125I]-PYY; settings: compound at 10 μM; [125I]-PYY
T3 construct: purchased Perkin Elmer Biosignal
T3 sequence (P25929 1-384): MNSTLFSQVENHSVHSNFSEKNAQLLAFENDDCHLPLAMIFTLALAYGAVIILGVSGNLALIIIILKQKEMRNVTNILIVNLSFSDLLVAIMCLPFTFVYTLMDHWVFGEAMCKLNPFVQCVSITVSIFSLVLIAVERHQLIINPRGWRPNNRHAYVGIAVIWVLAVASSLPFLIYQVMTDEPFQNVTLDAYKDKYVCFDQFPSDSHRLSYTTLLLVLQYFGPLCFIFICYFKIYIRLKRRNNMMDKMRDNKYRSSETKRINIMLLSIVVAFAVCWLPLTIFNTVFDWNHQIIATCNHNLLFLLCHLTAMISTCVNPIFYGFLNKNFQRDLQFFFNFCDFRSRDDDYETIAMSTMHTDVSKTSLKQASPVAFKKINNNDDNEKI
Procedure, shortened: as §1

Human κ-Opioid (KOP) = target: T4, Human κ-Opioid (KOP) (Homo sapiens, UniProt P41145); test: Radioligand binding, human κ-opioid (KOP) membranes, filtration, [3H]-Diprenorphine; settings: compound at 10 μM; [3H]-Diprenorphine
T4 construct: purchased Perkin Elmer Biosignal
Procedure, shortened: (§2)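 Membranes from cloned human receptors were incubated with compound and radioligand for 1 hour at room temperature. Bound ligand was collected on 0.3% PEI-soaked filters, washed with cold 50 mM Tris-HCl pH 7.4, and counted by scintillation. Percent inhibition was computed against DMSO totals and reference-ligand nonspecific wells.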

Mouse urotensin (mUR2) = target: T5, Mouse urotensin (mUR2) (Mus musculus, UniProt Q8VIH9); test: Radioligand binding, mouse urotensin mUR2 membranes, FlashPlate, [125I]-Urotensin II; settings: compound at 10 μM; [125I]-Urotensin II
T5 construct: purchased Perkin Elmer Biosignal
T5 sequence (Q8VIH9 1-385): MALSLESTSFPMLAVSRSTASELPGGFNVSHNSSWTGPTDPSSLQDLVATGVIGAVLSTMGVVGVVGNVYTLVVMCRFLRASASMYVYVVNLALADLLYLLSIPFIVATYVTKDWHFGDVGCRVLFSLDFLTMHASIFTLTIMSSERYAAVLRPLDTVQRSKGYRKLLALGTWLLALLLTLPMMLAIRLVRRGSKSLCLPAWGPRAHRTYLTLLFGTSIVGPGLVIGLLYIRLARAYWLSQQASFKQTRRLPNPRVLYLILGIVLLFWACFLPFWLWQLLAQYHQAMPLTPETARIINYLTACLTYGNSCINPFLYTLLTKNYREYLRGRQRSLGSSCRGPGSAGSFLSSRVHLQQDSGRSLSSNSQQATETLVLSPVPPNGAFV
Procedure, shortened: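 Cloned mouse urotensin (mUR2) receptor membranes from Perkin Elmer Biosignal were immobilized in FlashPlate microplates using a proprietary coating. Each well got 19.5 μl buffer, then 0.5 μl of DMSO, reference ligand, or compound. Adding 5 μl of [125I]-Urotensin II, diluted to 5× final concentration in binding buffer, started binding. Plates were sealed with TopSeal-A and incubated 1 hour at room temperature in the dark. Wells were counted for 30 seconds each on a TopCount after a 60-second delay, and percentage inhibition was calculated.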

Human opioid (ORL1) = target: T6, Human opioid (ORL1) (Homo sapiens, UniProt P41146); test: Radioligand binding, human opioid ORL1 membranes, FlashPlate, [125I]-Nociceptin; settings: compound at 10 μM; [125I]-Nociceptin
T6 construct: purchased Perkin Elmer Biosignal
Procedure, shortened: as §1

Human δ-opioid (DOP) = target: T7, Human δ-opioid (DOP) (Homo sapiens, UniProt P41143); test: Radioligand binding, human δ-opioid (DOP) membranes, FlashPlate, [3H]-Bremazocine; settings: compound at 10 μM; [3H]-Bremazocine
T7 construct: purchased Perkin Elmer Biosignal
Procedure, shortened: as §1

Human μ-opioid (MOP) = target: T8, Human μ-opioid (MOP) (Homo sapiens, UniProt P35372); test: Radioligand binding, human μ-opioid (MOP) membranes, FlashPlate, [3H]-Naloxone; settings: compound at 10 μM; [3H]-Naloxone
T8 construct: purchased Perkin Elmer Biosignal
Procedure, shortened: as §1

Human neurokinin (NK1) = target: T9, Human neurokinin (NK1) (Homo sapiens, UniProt P25103); test: Radioligand binding, human neurokinin NK1 membranes, filtration, [125I]-Substance P; settings: compound at 10 μM; [125I]-Substance P
T9 construct: purchased Perkin Elmer Biosignal
Procedure, shortened: as §2

Human Melanocortin (MC4) = target: T10, Human Melanocortin (MC4) (Homo sapiens, UniProt P32245); test: Radioligand binding, human melanocortin MC4 membranes, FlashPlate, [125I]-NDP-αMSH; settings: compound at 10 μM; [125I]-NDP-αMSH
T10 construct: purchased Perkin Elmer Biosignal
Procedure, shortened: as §1

Human Melanocortin (MC3) = target: T11, Human Melanocortin (MC3) (Homo sapiens, UniProt P41968); test: Radioligand binding, human melanocortin MC3 membranes, FlashPlate, [125I]-NDP-αMSH; settings: compound at 10 μM; [125I]-NDP-αMSH
T11 construct: purchased Perkin Elmer Biosignal
Procedure, shortened: as §1

T7 sequence (P41143 whole entry): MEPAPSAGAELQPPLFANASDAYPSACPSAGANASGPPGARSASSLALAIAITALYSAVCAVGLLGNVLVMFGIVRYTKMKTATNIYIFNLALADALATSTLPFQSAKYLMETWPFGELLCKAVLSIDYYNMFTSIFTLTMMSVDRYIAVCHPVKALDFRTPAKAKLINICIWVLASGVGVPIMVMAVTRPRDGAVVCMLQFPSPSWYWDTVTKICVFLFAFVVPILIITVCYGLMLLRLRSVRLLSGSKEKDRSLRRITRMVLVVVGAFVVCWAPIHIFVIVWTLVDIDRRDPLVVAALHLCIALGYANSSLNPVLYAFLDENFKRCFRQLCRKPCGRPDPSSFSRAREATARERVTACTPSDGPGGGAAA
T1 sequence (Q99705 whole entry): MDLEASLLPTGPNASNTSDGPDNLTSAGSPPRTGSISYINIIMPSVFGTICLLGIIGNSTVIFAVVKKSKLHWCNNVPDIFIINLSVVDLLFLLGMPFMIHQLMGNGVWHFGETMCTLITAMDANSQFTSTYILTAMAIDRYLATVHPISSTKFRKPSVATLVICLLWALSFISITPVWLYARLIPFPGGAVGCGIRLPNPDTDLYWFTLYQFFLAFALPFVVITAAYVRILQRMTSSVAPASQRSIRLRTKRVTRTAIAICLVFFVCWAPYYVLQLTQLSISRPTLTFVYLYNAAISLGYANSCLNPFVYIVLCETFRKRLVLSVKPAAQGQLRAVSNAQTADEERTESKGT
T4 sequence (P41145 whole entry): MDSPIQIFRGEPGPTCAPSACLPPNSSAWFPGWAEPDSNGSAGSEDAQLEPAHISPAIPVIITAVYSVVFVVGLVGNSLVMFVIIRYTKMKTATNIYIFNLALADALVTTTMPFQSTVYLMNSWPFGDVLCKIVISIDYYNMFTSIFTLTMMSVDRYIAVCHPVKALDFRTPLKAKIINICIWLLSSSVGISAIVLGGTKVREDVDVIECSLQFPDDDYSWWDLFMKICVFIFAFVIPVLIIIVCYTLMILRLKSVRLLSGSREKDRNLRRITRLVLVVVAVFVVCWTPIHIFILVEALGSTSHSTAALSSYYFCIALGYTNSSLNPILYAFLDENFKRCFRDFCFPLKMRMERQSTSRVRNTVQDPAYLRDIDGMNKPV
T2 sequence (P33032 whole entry): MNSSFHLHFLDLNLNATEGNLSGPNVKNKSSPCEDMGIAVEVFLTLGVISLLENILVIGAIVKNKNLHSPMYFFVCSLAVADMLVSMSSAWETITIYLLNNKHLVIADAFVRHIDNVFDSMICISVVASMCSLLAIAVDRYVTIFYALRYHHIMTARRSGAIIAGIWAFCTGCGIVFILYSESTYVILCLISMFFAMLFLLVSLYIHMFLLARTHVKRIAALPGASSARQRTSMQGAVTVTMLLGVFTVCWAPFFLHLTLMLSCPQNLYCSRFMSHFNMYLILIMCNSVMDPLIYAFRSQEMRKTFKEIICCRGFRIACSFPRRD
T9 sequence (P25103 whole entry): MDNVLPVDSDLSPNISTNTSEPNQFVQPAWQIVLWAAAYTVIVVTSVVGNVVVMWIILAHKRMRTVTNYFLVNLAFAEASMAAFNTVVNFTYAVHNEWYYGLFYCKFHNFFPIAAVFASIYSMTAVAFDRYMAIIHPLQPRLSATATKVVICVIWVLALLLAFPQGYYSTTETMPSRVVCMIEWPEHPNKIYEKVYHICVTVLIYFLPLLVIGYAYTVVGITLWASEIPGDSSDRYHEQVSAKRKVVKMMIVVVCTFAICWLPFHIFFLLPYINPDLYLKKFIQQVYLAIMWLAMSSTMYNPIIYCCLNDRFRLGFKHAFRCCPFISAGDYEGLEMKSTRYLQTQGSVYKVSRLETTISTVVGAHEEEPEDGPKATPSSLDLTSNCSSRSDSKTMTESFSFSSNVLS
T10 sequence (P32245 whole entry): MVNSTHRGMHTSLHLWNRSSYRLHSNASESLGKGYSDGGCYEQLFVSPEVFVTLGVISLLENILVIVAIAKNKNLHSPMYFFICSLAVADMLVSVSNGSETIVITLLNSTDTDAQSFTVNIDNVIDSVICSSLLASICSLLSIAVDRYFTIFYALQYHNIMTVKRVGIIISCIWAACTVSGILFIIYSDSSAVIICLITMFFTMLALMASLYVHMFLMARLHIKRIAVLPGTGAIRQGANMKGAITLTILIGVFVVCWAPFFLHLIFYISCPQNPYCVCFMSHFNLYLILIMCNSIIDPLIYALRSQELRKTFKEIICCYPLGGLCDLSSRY
T11 sequence (P41968 whole entry): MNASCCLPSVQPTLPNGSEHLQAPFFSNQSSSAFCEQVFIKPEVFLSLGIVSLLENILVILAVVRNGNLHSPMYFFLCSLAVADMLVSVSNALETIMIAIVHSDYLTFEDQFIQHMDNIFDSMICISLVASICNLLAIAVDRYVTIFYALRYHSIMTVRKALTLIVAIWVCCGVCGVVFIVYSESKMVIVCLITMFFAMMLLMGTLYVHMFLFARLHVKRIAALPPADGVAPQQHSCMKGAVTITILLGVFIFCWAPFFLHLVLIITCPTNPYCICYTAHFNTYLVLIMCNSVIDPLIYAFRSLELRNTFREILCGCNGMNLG
T6 sequence (P41146 whole entry): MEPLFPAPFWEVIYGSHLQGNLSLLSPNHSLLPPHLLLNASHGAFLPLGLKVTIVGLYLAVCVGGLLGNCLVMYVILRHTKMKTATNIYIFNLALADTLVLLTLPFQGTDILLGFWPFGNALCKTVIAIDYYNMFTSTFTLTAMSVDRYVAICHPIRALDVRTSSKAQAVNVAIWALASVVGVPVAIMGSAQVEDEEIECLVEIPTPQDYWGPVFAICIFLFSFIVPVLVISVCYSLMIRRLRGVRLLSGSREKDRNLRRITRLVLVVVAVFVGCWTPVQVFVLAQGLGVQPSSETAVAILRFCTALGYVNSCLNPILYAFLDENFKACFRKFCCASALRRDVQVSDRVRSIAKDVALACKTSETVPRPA
T8 sequence (P35372 whole entry): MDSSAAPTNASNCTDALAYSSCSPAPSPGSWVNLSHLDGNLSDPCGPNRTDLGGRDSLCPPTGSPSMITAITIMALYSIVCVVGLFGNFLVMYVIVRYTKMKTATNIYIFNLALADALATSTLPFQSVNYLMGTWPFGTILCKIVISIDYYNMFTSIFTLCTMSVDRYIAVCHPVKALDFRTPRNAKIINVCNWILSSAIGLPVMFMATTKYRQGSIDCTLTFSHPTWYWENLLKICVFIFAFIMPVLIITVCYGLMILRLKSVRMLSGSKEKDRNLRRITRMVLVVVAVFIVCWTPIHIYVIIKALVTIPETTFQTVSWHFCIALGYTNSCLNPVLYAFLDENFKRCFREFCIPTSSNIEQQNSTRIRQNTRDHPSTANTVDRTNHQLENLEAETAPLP

Structure (SMILES) | A6 radioligand binding, percentage inhibition [1] | A5 radioligand binding, percentage inhibition (Human melanocortin (MC5)) | A9 radioligand binding, percentage inhibition [2] | A2 radioligand binding, percentage inhibition (Human κ-Opioid (KOP)) | A11 radioligand binding, percentage inhibition (Mouse urotensin (mUR2)) | A10 radioligand binding, percentage inhibition (Human opioid (ORL1)) | A1 radioligand binding, percentage inhibition (Human δ-opioid (DOP)) | A7 radioligand binding, percentage inhibition (Human μ-opioid (MOP)) | A8 radioligand binding, percentage inhibition (Human neurokinin (NK1)) | A4 radioligand binding, percentage inhibition (Human Melanocortin (MC4)) | A3 radioligand binding, percentage inhibition (Human Melanocortin (MC3))
COCC1OC(OCc2ccccc2)C(NC(=O)CCN)C(OCc2ccc(Cl)cc2)C1O (stereo not drawn) [compound 178] | − (“−” indicates less than 50% inhibition at 10 μM) | + (“+” indicates greater than 50% inhibition at 10 μM) | − (“−” indicates less than 50% inhibition at 10 μM) | − (“−” indicates less than 50% inhibition at 10 μM) | − (“−” indicates less than 50% inhibition at 10 μM) | − (“−” indicates less than 50% inhibition at 10 μM) | − (“−” indicates less than 50% inhibition at 10 μM) | − (“−” indicates less than 50% inhibition at 10 μM) | + (“+” indicates greater than 50% inhibition at 10 μM) | − (“−” indicates less than 50% inhibition at 10 μM) | − (“−” indicates less than 50% inhibition at 10 μM)
COCC1OC(OCc2ccccc2)C(NC(=O)CCNC(=N)N)C(OCc2ccc(Cl)cc2)C1O (stereo not drawn) [compound 179] | + (“+” indicates greater than 50% inhibition at 10 μM) | + (“+” indicates greater than 50% inhibition at 10 μM) | − (“−” indicates less than 50% inhibition at 10 μM) | − (“−” indicates less than 50% inhibition at 10 μM) | − (“−” indicates less than 50% inhibition at 10 μM) | − (“−” indicates less than 50% inhibition at 10 μM) | + (“+” indicates greater than 50% inhibition at 10 μM) | − (“−” indicates less than 50% inhibition at 10 μM) | + (“+” indicates greater than 50% inhibition at 10 μM) | + (“+” indicates greater than 50% inhibition at 10 μM) | + (“+” indicates greater than 50% inhibition at 10 μM)
COCC1OC(OCc2ccccc2)C(NC(=O)CCCN)C(OCc2ccc(Cl)cc2)C1O (stereo not drawn) [compound 180] | − (“−” indicates less than 50% inhibition at 10 μM) | − (“−” indicates less than 50% inhibition at 10 μM) | − (“−” indicates less than 50% inhibition at 10 μM) | − (“−” indicates less than 50% inhibition at 10 μM) | − (“−” indicates less than 50% inhibition at 10 μM) | − (“−” indicates less than 50% inhibition at 10 μM) | − (“−” indicates less than 50% inhibition at 10 μM) | − (“−” indicates less than 50% inhibition at 10 μM) | + (“+” indicates greater than 50% inhibition at 10 μM) | − (“−” indicates less than 50% inhibition at 10 μM) | − (“−” indicates less than 50% inhibition at 10 μM)
COCC1OC(OCc2ccccc2)C(NC(=O)CCCNC(=N)N)C(OCc2ccc(Cl)cc2)C1O (stereo not drawn) [compound 181] | + (“+” indicates greater than 50% inhibition at 10 μM) | + (“+” indicates greater than 50% inhibition at 10 μM) | − (“−” indicates less than 50% inhibition at 10 μM) | − (“−” indicates less than 50% inhibition at 10 μM) | − (“−” indicates less than 50% inhibition at 10 μM) | − (“−” indicates less than 50% inhibition at 10 μM) | − (“−” indicates less than 50% inhibition at 10 μM) | − (“−” indicates less than 50% inhibition at 10 μM) | + (“+” indicates greater than 50% inhibition at 10 μM) | + (“+” indicates greater than 50% inhibition at 10 μM) | − (“−” indicates less than 50% inhibition at 10 μM)
COCC1OC(OCc2ccccc2)C(NC(=O)CN)C(OCc2ccc(-c3ccccc3)cc2)C1O (stereo not drawn) [compound 182] | − (“−” indicates less than 50% inhibition at 10 μM) | − (“−” indicates less than 50% inhibition at 10 μM) | − (“−” indicates less than 50% inhibition at 10 μM) | − (“−” indicates less than 50% inhibition at 10 μM) | − (“−” indicates less than 50% inhibition at 10 μM) | − (“−” indicates less than 50% inhibition at 10 μM) | − (“−” indicates less than 50% inhibition at 10 μM) | − (“−” indicates less than 50% inhibition at 10 μM) | + (“+” indicates greater than 50% inhibition at 10 μM) | − (“−” indicates less than 50% inhibition at 10 μM) | − (“−” indicates less than 50% inhibition at 10 μM)
COCC1OC(OCc2ccccc2)C(NC(=O)CNC(=N)N)C(OCc2ccc(-c3ccccc3)cc2)C1O (stereo not drawn) [compound 183] | + (“+” indicates greater than 50% inhibition at 10 μM) | + (“+” indicates greater than 50% inhibition at 10 μM) | − (“−” indicates less than 50% inhibition at 10 μM) | − (“−” indicates less than 50% inhibition at 10 μM) | − (“−” indicates less than 50% inhibition at 10 μM) | − (“−” indicates less than 50% inhibition at 10 μM) | − (“−” indicates less than 50% inhibition at 10 μM) | − (“−” indicates less than 50% inhibition at 10 μM) | + (“+” indicates greater than 50% inhibition at 10 μM) | + (“+” indicates greater than 50% inhibition at 10 μM) | − (“−” indicates less than 50% inhibition at 10 μM)
